{
  "source": "patent US20120225885A1",
  "about": "“IMIDAZOLE DERIVATIVES AND METHODS OF USE THEREOF” (priority 2009, published 2012)",
  "data": [
    {"molecular_target": "H3 receptor (UniProt Q9Y5N1)", "assay": "H3 Receptor Binding Assay", "settings": "displacement of 3 nM [3H]R-α-methyl histamine or [3H]Nα-methyl histamine; membranes from guinea pig brain, alternatively recombinant human receptor in HEK-293 cells; 30° C., 30 minutes; read-out: H3 Ave Ki", "procedure": "The source of the H3 receptors in this experiment was guinea pig brain. Alternatively, the source of H3 receptors was recombinant human receptor, expressed in HEK-293 (human embryonic kidney) cells.\nThe animals weighed 400-600 g. The brain tissue was homogenized with a solution of 50 mM Tris, pH 7.5. The final concentration of tissue in the homogenization buffer was 10% w/v. The homogenates were centrifuged at 1,000×g for 10 minutes. in order to remove clumps of tissue and debris. The resulting supernatants were then centrifuged at 50,000×g for 20 minutes in order to sediment the membranes, which were next washed three times in homogenization buffer (50,000×g for 20 minutes. each). The membranes were frozen and stored at −70° C. until needed.\nCompounds of the invention to be tested were dissolved in DMSO and then diluted into the binding buffer (50 mM Tris, pH 7.5) such that the final concentration was 2 μg/ml with 0.1% DMSO. Membranes were then added (400 μg of protein, 5 μg in the case of recombinant human receptor) to the reaction tubes. The reaction was started by the addition of 3 nM [^3H]R-α-methyl histamine (8.8 Ci/mmol) or 3 nM [^3H]N^α-methyl histamine (80 Ci/mmol) and continued under incubation at 30° C. for 30 minutes. Bound ligand was separated from unbound ligand by filtration, and the amount of radioactive ligand bound to the membranes was quantitated by liquid scintillation spectrometry. All incubations were performed in duplicate and the standard error was always less than 10%. Compounds that inhibited more than 70% of the specific binding of radioactive ligand to the receptor were serially diluted to determine a Ki (nM).", "units": {"Ki": "nM"}, "values": [
      {"smiles": "C[C@@H]1CCCN1CCc1cn2cc(Br)ccc2n1", "note": "[Compound 1]", "Ki": 327},
      {"smiles": "C[C@@H]1CCCN1CCc1cn2cc(-c3ccc(C#N)cc3)ccc2n1", "note": "[Compound 2]", "Ki": 27},
      {"smiles": "C[C@@H]1CCCN1CCc1cn2cc(-n3ncccc3=O)ccc2n1", "note": "[Compound 3]", "Ki": 76.8},
      {"smiles": "C[C@@H]1CCCN1CCc1cn2cc(-c3ccc(N(C)C)cc3)ccc2n1", "note": "[Compound 4]", "Ki": 106},
      {"smiles": "COc1ccc(-c2ccc3nc(CCN4CCC[C@H]4C)cn3c2)cc1", "note": "[Compound 5]", "Ki": 91.8},
      {"smiles": "C[C@@H]1CCCN1CCc1cn2cc(-c3ccc(F)cc3)ccc2n1", "note": "[Compound 6]", "Ki": 58.5},
      {"smiles": "C[C@@H]1CCCN1CCc1cn2cc(-c3ccc(O)cc3)ccc2n1", "note": "[Compound 7]", "Ki": 64.5},
      {"smiles": "CC(=O)Nc1ccc(-c2ccc3nc(CCN4CCC[C@H]4C)cn3c2)cc1", "note": "[Compound 8]", "Ki": 67.5},
      {"smiles": "C[C@@H]1CCCN1CCc1cn2cc(-c3cccc(C#N)c3)ccc2n1", "note": "[Compound 9]", "Ki": 13},
      {"smiles": "COc1ccccc1-c1ccc2nc(CCN3CCC[C@H]3C)cn2c1", "note": "[Compound 10]", "Ki": 163},
      {"smiles": "C[C@@H]1CCCN1CCc1cn2cc(-c3ccccc3F)ccc2n1", "note": "[Compound 11]", "Ki": 74},
      {"smiles": "C[C@@H]1CCCN1CCc1cn2ccc(Br)cc2n1", "note": "[Compound 12]", "Ki": 101},
      {"smiles": "C[C@@H]1CCCN1CCc1cn2ccc(-c3ccc(C#N)cc3)cc2n1", "note": "[Compound 13]", "Ki": 34},
      {"smiles": "CCOc1cccc(-c2ccn3cc(CCN4CCC[C@H]4C)nc3c2)c1", "note": "[Compound 14]", "Ki": 70},
      {"smiles": "C[C@@H]1CCCN1CCc1cn2ccc(-c3ccccc3F)cc2n1", "note": "[Compound 15]", "Ki": 25},
      {"smiles": "C[C@@H]1CCCN1CCc1cn2cc(-c3ccc(F)c(C#N)c3)ccc2n1", "note": "[Compound 16]", "Ki": 4},
      {"smiles": "C[C@@H]1CCCN1CCc1cn2cc(-c3ccc4ncccc4c3)ccc2n1", "note": "[Compound 17]", "Ki": 11.2},
      {"smiles": "C[C@@H]1CCCN1CCc1cn2cc(-c3cncc(C#N)c3)ccc2n1", "note": "[Compound 18]", "Ki": 38.6},
      {"smiles": "C[C@@H]1CCCN1CCc1cn2ccc(-c3ccc(F)nc3)cc2n1", "note": "[Compound 19]", "Ki": 36.5},
      {"smiles": "C[C@@H]1CCCN1CCc1cn2cc(-c3cccc4ncccc34)ccc2n1", "note": "[Compound 20]", "Ki": 104},
      {"smiles": "C[C@@H]1CCCN1CCc1cn2cc(-c3ccc4[nH]ccc4c3)ccc2n1", "note": "[Compound 21]", "Ki": 459},
      {"smiles": "C[C@@H]1CCCN1CCc1cn2cc(-c3ccc(=O)n(C)c3)ccc2n1", "note": "[Compound 22]", "Ki": 69},
      {"smiles": "C[C@@H]1CCCN1CCc1cn2cc(-c3cnc(N)c(C#N)c3)ccc2n1", "note": "[Compound 23]", "Ki": 22},
      {"smiles": "C[C@@H]1CCCN1CCc1cn2cc(-c3cncnc3)ccc2n1", "note": "[Compound 24]", "Ki": 366},
      {"smiles": "C[C@@H]1CCCN1CCc1cn2cc(-c3cnc(N)cn3)ccc2n1", "note": "[Compound 25]", "Ki": 246},
      {"smiles": "Cc1nnc2ccc(-c3ccc4nc(CCN5CCC[C@H]5C)cn4c3)cn12", "note": "[Compound 26]", "Ki": 7.1}
    ]}
  ]
}
